Reference: US20240315992A1, “AMINOXY ACID-BASED ANTIBACTERIAL COMPOUNDS AND METHODS THEREOF” (The University of Hong Kong, priority 2023, published 2024)
Values after ≈ are worked out from the molar mass of the structure shown.

Tests used:
[1] = test system: Staphylococcus aureus ATCC 29213; assay: Scanning and transmission electron microscopy; assay type: cell-based; conditions: 24 hours treatment, SEM and TEM
Description: FIGS. 16A-16B are the images showing the compound 8 and compound 35 can induced the cell burst of Staphylococcus aureus. (FIG. 16A) Cells are imaged under scanning electron microscope. (FIG. 16B) Cells are imaged under transmission electron microscope.
Briefly, an overnight culture of Staphylococcus aureus ATCC 29213 was sub-cultured 1:100 in fresh CAMH and regrown for 2 hours. Then the bacteria were treated with compound or DMSO negative control for 24 hours. The bacterial pellet was resuspended in PBS and loaded on 0.22 μm filter membrane. The bacteria were fixed on the membrane by 2.5% glutaraldehyde for overnight at 4° C. The filter membranes were washed by PBS and subsequently dehydrated using ethanol as shown below.
The samples were submitted to HKU Electron Microscope Unit (EMU) for critical point drying, mounting and coating of the specimens. Samples were then observed using LEO 1530 FEG Scanning Electron Microscope.
Briefly, an overnight culture of Staphylococcus aureus ATCC 29213 was sub-cultured 1:100 in fresh CAMH and regrown for 2 hours. Then the bacteria were treated with compound or negative control DMSO for 24 hours. The bacterial pellet was then washed by PBS and fixed in cacodylate buffer (0.1 M sodium cacodylate-HCl buffer pH 7.4) for 1 hour at 4° C. […]

M. smegmatis mc^2155 = assay: MIC by CLSI broth micro-dilution, M. smegmatis; assay type: cell-based, Mycobacterium smegmatis; conditions: Mycolicibacterium smegmatis; M. smegmatis mc^2155, BHI medium; read-out: Minimum inhibitory concentration
Description: Aminoxy acids were synthesized by the standard peptide coupling procedures. Minimum inhibitory concentration was determined using CLSI broth micro-dilution method in 96-wells microtitre plates. Minimum inhibitory concentration is defined as the lowest concentration of the compound that inhibits visible growth of the bacteria. All experiments were performed three times. 24 compounds including aminoxy acid monomers and dipeptides have been identified to show toxicity against multidrug resistant Staphylococcus aureus Mu3 and summarized in Table 1. The minimum inhibitory concentration of compound 8 and compound 35 on other gram-positive bacteria was also evaluated and summarized in Table 2. […] As shown in FIGS. 3A-3B there are no observable hemolysis for compound 8 and compound 35 towards human red blood cell.
Bacteria were streaked from the glycerol stock into BHI agar and were incubated overnight. Single colony was picked for the overnight culture in cation-adjusted Mueller Hinton broth (CAMH), LB or BHI. The overnight culture was sub-cultured and regrew to exponential phase for the experiment.
MIC was determined by CLSI broth micro-dilution method in 96-wells microtitre plates. […] Optical density was recorded by DTX 880 multimode detector (Beckman Coulter, California, US). […]

[2] = test system: Staphylococcus aureus ATCC 35556 biofilm formation; assay: Inhibition of biofilm formation (crystal violet); assay type: cell-based; conditions: 24 hours treatment, also sub-inhibitory concentration
Description: Staphylococcus aureus ATCC 35556 was treated with various concentrations of compound 8, compound 35 or 1% DMSO as negative control for 24 hours. Biofilm was quantified using crystal violet. The data were normalized to DMSO (100% biofilm) and represent average values±S.D. (n=9 per group). Statistical analysis was performed by ANOVA with Dunnett's post-test to calculate p-values adjusted for multiple comparisons with DMSO as control condition (*p<0.05; **p<0.01; ***p<0.001).
Briefly, overnight cultures of Staphylococcus aureus ATCC 35556 in Tryptic Soy Broth (TSB) were sub-cultured from an overnight culture 1:100 for 2.5 hours. The bacteria were diluted 1:100 into fresh TSB and 200 μL bacteria in TSB was added to each well of a flat-bottomed 96-well plate (200 μL/well). Compounds (two-fold serial dilutions; final DMSO concentration of maximum 1%) were added. Plates were incubated at 37° C. for 24 hours. After 24 hours, the supernatant was removed and washed by PBS (200 μL) 2 times. Biofilms were dried at 37° C. for 30 minutes. 1% Crystal violet (25% ethanol in H2O) was diluted 1:5 in PBS and 200 μL was added to each well, followed by incubation at room temperature for 10 minutes. […] Following a 1:4 dilution step (33% acetic acid), optical density was measured at 595 nm by Beckman Coulter DTX 880 Multimode Detector. […]

MDCK = assay: Mammalian cell cytotoxicity assay (MTT), MDCK; assay type: cell-based; conditions: at 16 folded MIC (50 μM compound 8, 12.5 μM compound 35)
Description: FIGS. 2A-2B are the bar graphs showing the cytotoxicity of compound 8 (FIG. 2A) and compound 35 (FIG. 2B) towards mammalian cell NIH3T3, MDCK and MIHA. % survival is mean±S.D normalized to DMSO as the negative control of a representative experiment. Biological triplicates were conducted.
In the treated culture dish, cells were washed by PBS and then trypsinized. DMEM was added to quench the reaction. Cells were centrifuged and resuspended into fresh DMEM. Cells were then seeded in 96-well microtitre plate (100 μL, 5000 cells per well) for 24 hours before addition of compounds. The compounds were two-fold serial diluted by DMSO in a DMSO-compatible 96-well plate. 1 μL of compound in DMSO is transferred into the 96-well microtitre preparation plate containing 100 μL DMEM medium. The medium in culture plate was removed and compounds in preparation plate were transferred to culture plate. Equal volume of DMSO was used as negative control.
After 24 hours of incubation of cells, cell viability was measured by MTT assay. In MTT assay, 20 μL 5 mg/mL MTT solution in PBS was added to cell medium and cultured for 3 hours. The medium was then removed and 50 μL DMSO was added and cultured for 10 minutes. Absorbance at 595 nm was measured spectrophotometrically (Beckman Coulter DTX 880 Multimode Detector) and normalized to DMSO group. Biological replicates were performed.

## CC(C)C[C@H](ONC(=O)[C@@H](COCc1ccccc1)ONC(=O)c1cc(C(F)(F)F)cc(C(F)(F)F)c1)C(=O)Nc1ccccc1 [Compound 8]
[1]
  cell morphology under electron microscope: severe cell abnormality including cell burst and irregular shape of cell wall
M. smegmatis mc^2155
  MIC: 12.5 µM (≈ 8.19 µg/mL)
[2]
  formation of the Staphylococcus aureus biofilm: significantly inhibited the formation of the Staphylococcus aureus biofilm even under sub-inhibitory concentration
MDCK
  toxicity against mammalian cell MDCK: minimal toxicity

## CC(C)C[C@H](ONC(=O)[C@@H](COCc1ccccc1)ONC(=O)c1cc(C(F)(F)F)cc(C(F)(F)F)c1)C(=O)Nc1ccc2c(c1)OC(F)(F)O2 [Compound 35]
[1]
  cell morphology under electron microscope: severe cell abnormality including cell burst and irregular shape of cell wall
M. smegmatis mc^2155
  MIC: 1.56 µM (≈ 1.15 µg/mL)
[2]
  formation of the Staphylococcus aureus biofilm: significantly inhibited the formation of the Staphylococcus aureus biofilm even under sub-inhibitory concentration
MDCK
  toxicity against mammalian cell MDCK: minimal toxicity
